Data reported in ChEMBL document CHEMBL1268922, “Xiamycin, a pentacyclic indolosesquiterpene with selective anti-HIV activity from a bacterial mangrove endophyte” (Bioorg Med Chem Lett, 2010).
Values after ≈ are worked out from the molar mass of the structure shown. Active and inactive are the calls of the source. The rule behind the calls is not given here.

How the values were obtained:
Enterococcus faecalis = experiment: Antimicrobial activity against Enterococcus faecalis 1528 R10 at 50 ug after 24 hrs by paper disk method; assay type: functional; settings: 1528 R10, 24 h, read-out: IZ
[1] = tested on: Sporobolomyces salmonicolor; experiment: Antimicrobial activity against Sporobolomyces salmonicolor SBUG 549 at 50 ug after 24 hrs by paper disk method; assay type: functional, organism-based
Bacillus subtilis = experiment: Antimicrobial activity against Bacillus subtilis ATCC 6633 at 50 ug after 24 hrs by paper disk method; assay type: functional; settings: ATCC 6633, 24 h, read-out: IZ
[2] = Antitumor activity against human MEXF 462NL by modified propidium iodide assay; assay type: functional
Staphylococcus aureus [3] = experiment: Antimicrobial activity against Staphylococcus aureus SG 511 at 50 ug after 24 hrs by paper disk method; assay type: functional; settings: SG 511, 24 h, read-out: IZ
Candida albicans = experiment: Antimicrobial activity against Candida albicans at 50 ug after 24 hrs by paper disk method; assay type: functional, organism-based
[4] = Antitumor activity against human MAXF 401NL by modified propidium iodide assay; assay type: functional
HT-29 = experiment: Antitumor activity against human HT-29 by modified propidium iodide assay; assay type: functional, cell-based
[5] = Antitumor activity against human PAXF 1657L by modified propidium iodide assay; assay type: functional
[6] = Antitumor activity against human GXF251L by modified propidium iodide assay; assay type: functional
Staphylococcus aureus [7] = experiment: Antimicrobial activity against Staphylococcus aureus 134/94 R9 at 50 ug after 24 hrs by paper disk method; assay type: functional; settings: 134/94 R9, 24 h, read-out: IZ
[8] = Antitumor activity against human LXFL 529L by modified propidium iodide assay; assay type: functional
CWR22R = experiment: Antitumor activity against human 22Rv1 by modified propidium iodide assay; assay type: functional, cell-based
[9] = Antitumor activity against human RXF 486L by modified propidium iodide assay; assay type: functional
[10] = Antitumor activity against human UXF 1138L by modified propidium iodide assay; assay type: functional
Escherichia coli = experiment: Antimicrobial activity against Escherichia coli SG458 at 50 ug after 24 hrs by paper disk method; assay type: functional, organism-based
Pseudomonas aeruginosa [11] = experiment: Antimicrobial activity against Pseudomonas aeruginosa K799/61 at 50 ug after 24 hrs by paper disk method; assay type: functional; settings: K799/61, 24 h, read-out: IZ
[12] = Antitumor activity against human LXFA 629L by modified propidium iodide assay; assay type: functional
[13] = Antitumor activity against human OVXF 899L by modified propidium iodide assay; assay type: functional
Pseudomonas aeruginosa [14] = experiment: Antimicrobial activity against Pseudomonas aeruginosa SG137/B7 at 50 ug after 24 hrs by paper disk method; assay type: functional, organism-based
Mycolicibacterium vaccae = experiment: Antimicrobial activity against Mycobacterium vaccae IMET 10670 at 50 ug after 24 hrs by paper disk method; assay type: functional; settings: IMET 10670, 24 h, read-out: IZ
[15] = Antitumor activity against human PXF 1752L by modified propidium iodide assay; assay type: functional
Penicillium chrysogenum = experiment: Antimicrobial activity against Penicillium notatum JP36 at 50 ug after 24 hrs by paper disk method; assay type: functional, organism-based
HeLa = experiment: Antiproliferative activity against human HeLa cells; assay type: functional
[16] = tested on: Human immunodeficiency virus 1; experiment: Inhibition of HIV1 NL4-3 replication in CD4-CXCR4 expressing human TZM-bl cells assessed as decrease in p24 antigen production; assay type: functional, organism-based
[17] = tested on: Human immunodeficiency virus 1; experiment: Inhibition of HIV1 NL4-3 replication in CD4-CCR5 expressing human TZM-bl cells assessed as decrease in p24 antigen production; assay type: functional, organism-based
K562 = experiment: Antiproliferative activity against human K562 cells; assay type: functional
L929 = experiment: Antiproliferative activity against mouse L929 cells; assay type: functional

| SMILES | zone of inhibition at 50 µg/disc (Enterococcus faecalis) | Activity [1] | zone of inhibition at 50 µg/disc (Bacillus subtilis) | IC50 [2] | zone of inhibition at 50 µg/disc (Staphylococcus aureus [3]) | Activity (Candida albicans) | IC50 [4] | IC50 (HT-29) | IC50 [5] | IC50 [6] | zone of inhibition at 50 µg/disc (Staphylococcus aureus [7]) | IC50 [8] | IC50 (CWR22R) | IC50 [9] | IC50 [10] | Activity (Escherichia coli) | zone of inhibition at 50 µg/disc (Pseudomonas aeruginosa [11]) | IC50 [12] | IC50 [13] | Activity (Pseudomonas aeruginosa [14]) | also measured |
| --- | --- | --- | --- | --- | --- | --- | --- | --- | --- | --- | --- | --- | --- | --- | --- | --- | --- | --- | --- | --- | --- |
| COC(=O)[C@]1(C)[C@@H](O)CC[C@]2(C)c3cc4c(cc3CC[C@@H]12)[nH]c1ccccc14 | 12 mm | inactive | 13.5 mm | 9.62 µM | 15 mm | inactive | 10.8 µM | 9.97 µM | 12.4 µM | 7.63 µM | 14 mm | 10 µM | 9.87 µM | 11.1 µM | 8.54 µM | inactive | 15 mm | 8.52 µM | 11.7 µM | inactive | zone of inhibition at 50 µg/disc (Mycolicibacterium vaccae): 14 mm; IC50 [15]: 12.8 µM; Activity (Penicillium chrysogenum): Active |
| C[C@@]1(C(=O)O)[C@@H](O)CC[C@]2(C)c3cc4c(cc3CC[C@@H]12)[nH]c1ccccc14 [XIAMYCIN] | 12 mm | inactive | 13.5 mm | > 30 µM | 15 mm | inactive | > 30 µM | > 30 µM | > 30 µM | 30 µM | 14 mm | > 30 µM | > 30 µM | > 30 µM | > 30 µM | inactive | 15 mm | > 30 µM | > 30 µM | inactive | CC50 (HeLa): 44.3 µg/mL (≈ 122 µM); inhibition [16]: Active; inhibition [17]: Active; zone of inhibition at 50 µg/disc (Mycolicibacterium vaccae): 14 mm; GI50 (K562): 36.7 µg/mL (≈ 101 µM); IC50 [15]: > 30 µM; GI50 (L929): 49.8 µg/mL (≈ 137 µM); Activity (Penicillium chrysogenum): Active |
